Publication PMC7883289, “Synthesis of Paeonol-Ozagrel Conjugate: Structure Characterization and In Vivo Anti-Ischemic Stroke potential” (Frontiers in Pharmacology, 2021)

Columns and labels:
SOD and MDA = test: Oxidative stress biomarker assay (SOD, MDA) in brain tissue of MCAO rats; format: in vivo; details: whole brain homogenate, POC 4.5 mg/kg iv compared with the paeonol and OS groups (3 mg/kg iv), n = 6
Method: Male Sprague Dawley (SD) rats weighing among 220 g–230 g (Anhui Medicine University, Hefei, China; certificate number: SCXK20190,003) were housed under ad libitum access to food and water with a standardized light-dark cycle condition (25 ± 2°C, 12–hour light/dark cycle). All the experimental protocols were performed in accordance with the Institutional Animal Care and Use Committee of Anhui University of Chinese Medicine (Animal ethics number: AHUCM–rats–2019001). We used the minimal number of study animals (n = 6 rats in each group for different experiments). The rats were fastened upon the operating table in a supine position after being anesthetized with 2% pelltobarbitalum natricum (50 mg/kg). After disinfection of the skin within close proximity of the operative region, the right common carotid artery (CCA), external carotid artery (ECA) and internal carotid artery (ICA) were exposed with blunt dissection. The CCA was temporarily ligated and the ECA were permanently ligated ([Liu et al., 2016]). A nylon monofilament surgical thread was introduced into the ICA to block the MCA when the blunted distal end met resistance. After 2 h of occlusion, reperfusion was accomplished to restore blood supply to the MCA area by removing the filament ([Li et al., 2009]; [Zhai et al., 2017]). […] A microplate reader was used to measure the absorbance at 450 and 532 nm with a UV spectrophotometer. […]

[1] = Solubility of POC in solvents (described in words); format: physicochemical
IL–6, IL–1β, TNF–α = test: ELISA assay for inflammatory cytokines in brain tissue of MCAO rats; format: in vivo; details: versus model group (p < 0.001), paeonol and OS 3 mg/kg, POC 4.5 mg/kg iv, n = 6
Method: Male Sprague Dawley (SD) rats weighing among 220 g-230 g (Anhui Medicine University, Hefei, China; certificate number: SCXK20190,003) were housed under ad libitum access to food and water with a standardized light-dark cycle condition (25 ± 2°C, 12-hour light/dark cycle). All the experimental protocols were performed in accordance with the Institutional Animal Care and Use Committee of Anhui University of Chinese Medicine (Animal ethics number: AHUCM-rats-2019001). We used the minimal number of study animals (n = 6 rats in each group for different experiments). The rats were fastened upon the operating table in a supine position after being anesthetized with 2% pelltobarbitalum natricum (50 mg/kg). After disinfection of the skin within close proximity of the operative region, the right common carotid artery (CCA), external carotid artery (ECA) and internal carotid artery (ICA) were exposed with blunt dissection. The CCA was temporarily ligated and the ECA were permanently ligated ([Liu et al., 2016]). […] According to the manufacturer's instructions, the levels of inflammatory cytokines (IL - 6, IL-1β, TNF-α; R&D Systems, Minneapolis, MN, United States) and TXA2 (Wuhan ColorfulGene Biological Technology Co., LTD) were detected using the commercial ELISA kits. The resultant colored products were measured the absorbance at 450 nm. […]

- solubility in ethyl acetate ([1]; ethyl acetate): slightly soluble
- solubility in methanol and ethanol ([1]; methanol and ethanol): easily soluble
- solubility in water ([1]; water): almost insoluble or insoluble
SMILES: COc1ccc(C(C)=O)c(OC(=O)C=Cc2ccc(Cn3ccnc3)cc2)c1 [POC, paeonol-ozagrel conjugate]
- MDA levels in brain tissue (SOD and MDA): lowest MDA levels
- SOD levels in brain tissue (SOD and MDA): highest SOD levels
- release of inflammatory cytokines (IL–6, IL–1β, TNF–α) in brain tissue (IL–6, IL–1β, TNF–α): can inhibit the expression of three markers of inflammatory cytokines
